According to patent US7910591B2, “Piperazine derivatives of alkyl oxindoles” (EGIS Gyogyszergyar NYRT., priority 2004, dated 2011):
Where a name gives a salt, the structure may show the parent alone.

Key:
[1] = molecular target: T1, 5-HT7 receptor (Homo sapiens, UniProt P34969); experiment: 5-HT7 receptor binding; details: human cloned receptors; ligand 3H-lizergic acid diethylamide (LSD) 1.0 nM; non-specific binding clozapine 25 μM
T1 construct: expressed in transfected cells
Protocol: (§1) For the determination of 5-HT7 receptor affinity human cloned receptors were used. The α1 receptor affinities were determined from isolated frontal cortex preparation of male Wistar rats weighing 120-200 g. The protein contents of membrane preparations were determined by the method of Lowry (1951).
(§2) In the course of 5-HT7 and α1 receptor binding studies the ligands were ^3H-lizergic acid diethylamide (LSD) (1.0 nM) and ^3H-prazosine (0.3 nM). Clozapine (25 μM) and prazosine (1 μM) were used for the measurement of non-specific bindings. The α1 receptor binding studies were carried out according to the methods of Reader, and Greengrass (Reader, T. A., Briere, R., Grondin, L.: J. Neural Transm. 68, p. 79 (1987); Greengrass, P., Brenner, R.: Eur. J. Pharmacol. 55, p. 323 (1979)).
(§3) IC50 is the concentration where the difference between the whole binding and non-specific binding is 50%. The compounds with an IC50 value smaller than […] were considered effective in this test.

[2] = molecular target: α1 receptor; experiment: α1 receptor binding; design: species or system rat; details: isolated frontal cortex preparation of male Wistar rats; ligand 3H-prazosine 0.3 nM; non-specific binding prazosine 1 μM
Protocol: as §1, §2, §3

T1 sequence (P34969 whole entry): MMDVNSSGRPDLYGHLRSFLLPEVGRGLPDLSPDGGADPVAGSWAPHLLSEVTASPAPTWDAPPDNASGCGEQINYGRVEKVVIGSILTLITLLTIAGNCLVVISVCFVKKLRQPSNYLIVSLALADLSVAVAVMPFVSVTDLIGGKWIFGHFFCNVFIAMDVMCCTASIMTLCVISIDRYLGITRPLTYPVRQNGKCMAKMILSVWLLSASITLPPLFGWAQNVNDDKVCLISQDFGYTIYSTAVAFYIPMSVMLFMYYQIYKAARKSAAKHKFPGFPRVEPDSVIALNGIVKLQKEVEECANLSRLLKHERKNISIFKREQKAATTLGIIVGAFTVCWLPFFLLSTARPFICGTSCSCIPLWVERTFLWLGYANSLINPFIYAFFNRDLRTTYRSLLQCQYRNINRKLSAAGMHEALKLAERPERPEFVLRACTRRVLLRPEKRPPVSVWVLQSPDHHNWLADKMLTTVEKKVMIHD

melting point [°C] | IC50 [1] [nM] | IC50 [2] [nM] | SMILES
91 to 94 |  |  | COc1ccc(Cl)cc1N1CCN(CCCCC2C(=O)Nc3ccccc32)CC1 (stereo not shown) (as salt: hydrochloride) [Example 11, 3-{4-[4-(5-Chloro-2-methoxyphenyl)-piperazine-1-yl]-butyl}-1,3-dihydro-2H-indol-2-one Monohydrochloride]
236 to 238 |  |  | O=C1Nc2ccccc2C1CCCCN1CCN(c2cc(Cl)cc3c2OCCO3)CC1 (stereo not shown) (as salt: oxalate) [Example 6, 3-{4-[4-(7-Chloro-2,3-dihydrobenzo[1,4]dioxin-5-yl)-piperazine-1-yl]-butyl}-1,3-dihydro-2H-indol-2-one Monooxalate]
208 to 211 |  |  | COc1cccc(N2CCN(CCCCC3C(=O)Nc4ccccc43)CC2)c1 (stereo not shown) (as salt: oxalate) [Example 9, 3-{4-[4-(3-Methoxyphenyl)-piperazine-1-yl]-butyl}-1,3-dihydro-2H-indol-2-one Monooxalate]
211 to 214 |  |  | COc1cccc(N2CCN(CCCCC3C(=O)Nc4ccc(F)cc43)CC2)c1 (stereo not shown) (as salt: oxalate) [Example 12, 5-Fluoro-3-{4-[4-3-methoxyphenyl)-piperazine-1-yl]-butyl}-1,3-dihydro-2H-indol-2-one Monooxalate]
131 to 132 | < 100 | < 100 | O=C1Nc2ccccc2C1CCCCN1CCN(c2ccccn2)CC1 (stereo not shown) [Example 5, 3-[4-(4-Pyridin-2-yl-piperazine-1-yl)-butyl]-1,3-dihydro-2H-indol-2-one]
 | < 100 |  | O=C1Nc2ccccc2C1CCCCN1CCN(c2cc(Cl)cc3c2OCCO3)CC1 (stereo not shown) [Example 6, 3-{4-[4-(7-Chloro-2,3-dihydrobenzo[1,4]dioxin-5-yl)-piperazine-1-yl]-butyl}-1,3-dihydro-2H-indol-2-one Monooxalate]
132 to 134 |  |  | O=C1Nc2ccc(F)cc2C1CCCCN1CCN(c2ccccn2)CC1 (stereo not shown) [Example 7, 5-Fluoro-3-[4-(4-pyridin-2-yl-piperazine-1-yl)-butyl]-1,3-dihydro-2H-indol-2-one]
136 to 137 | < 100 | < 100 | O=C1Nc2cc(F)ccc2C1CCCCN1CCN(c2ccccn2)CC1 (stereo not shown) [Example 8, 6-Fluoro-3-[4-(4-pyridin-2-yl-piperazine-1-yl)-butyl]-1,3-dihydro-2H-indol-2-one]
 | < 100 |  | COc1cccc(N2CCN(CCCCC3C(=O)Nc4ccccc43)CC2)c1 (stereo not shown) [Example 9, 3-{4-[4-(3-Methoxyphenyl)-piperazine-1-yl]-butyl}-1,3-dihydro-2H-indol-2-one Monooxalate]
146 to 148 | < 100 | < 50 | O=C1Nc2ccc(F)cc2C1CCCCN1CCN(c2cc(Cl)cc3c2OCCO3)CC1 (stereo not shown) [Example 10, 3-{4-[4(7-Chloro-2,3-dihydrobenzo[1,4]dioxin-5-yl)piperazine-1-yl]-butyl}-5-fluoro-1,3-dihydro-2H-indol-2-one]
 | < 100 |  | COc1ccc(Cl)cc1N1CCN(CCCCC2C(=O)Nc3ccccc32)CC1 (stereo not shown) [Example 11, 3-{4-[4-(5-Chloro-2-methoxyphenyl)-piperazine-1-yl]-butyl}-1,3-dihydro-2H-indol-2-one Monohydrochloride]
 | < 100 | < 100 | COc1cccc(N2CCN(CCCCC3C(=O)Nc4ccc(F)cc43)CC2)c1 (stereo not shown) [Example 12, 5-Fluoro-3-{4-[4-3-methoxyphenyl)-piperazine-1-yl]-butyl}-1,3-dihydro-2H-indol-2-one Monooxalate]
